Reference: the supplement of paper PMC10627819

Legend:
Settings in all cases: main component drawn
[1] = tested on: S. aureus Newman; test: fitness (endpoint OD595 vs no drug) (fraction); higher = more growth
Summary of the method: (§1)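 Volumes were 30 µl per well, or 55 µl for S. pneumoniae, in 384-well plates inoculated at OD595 0.01. Media were TSB, LB Lennox or CY at 37 °C, and OD595 was read every 30 min for 14 h with first-reading background subtraction. Fitness is the ratio of optical density at stationary-phase entry to the robust mean of no-drug controls. That ratio is capped at 1.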

[2] = tested on: B. subtilis 168; test: as above
Summary of the method: as §1

[3] = tested on: S. aureus DSM 20231; test: Bliss interaction score (quartile over a dose matrix) (fitness difference); higher = more antagonism (negative = synergy)
Summary of the method: (§2)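 Growth was read as OD595 when cultures entered stationary phase, and each value was divided by the plate's robust no-drug mean and capped at 1. This normalised ratio is the fitness value, and fitness for each single drug came from the combination data. The Bliss score subtracts the expected fitness, taken as the product, from the observed fitness and is given as quartiles across technical, biological and donor/recipient replicates.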

[4] = tested on: S. aureus Newman; test: as above
Summary of the method: as §2

[5] = tested on: B. subtilis 168; test: as above
Summary of the method: as §2

[6] = tested on: S. pneumoniae D39V; test: as above
Summary of the method: as §2

[7] = first compound 18.75 µg/mL, partner 0.125 µg/mL
[8] = first compound 37.5 µg/mL, partner 0.0625 µg/mL
[9] = first compound 37.5 µg/mL, partner 0.125 µg/mL
[10] = first compound 75 µg/mL, partner 0.0625 µg/mL
[11] = first compound 75 µg/mL, partner 0.125 µg/mL
[12] = first compound 37.5 µg/mL, partner 0.25 µg/mL
[13] = first compound 75 µg/mL, partner 0.25 µg/mL
[14] = first compound 150 µg/mL, partner 0.125 µg/mL
[15] = first compound 18.75 µg/mL, partner 0.25 µg/mL
[16] = first compound 37.5 µg/mL, partner 1 µg/mL, one replicate
[17] = first compound 75 µg/mL, partner 1 µg/mL, one replicate
[18] = first compound 75 µg/mL, partner 0.5 µg/mL
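Throughout, for Bliss interaction score (quartile over a dose matrix): first quartile when negative (synergy) and third quartile when positive (antagonism).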

| SMILES | fitness [1, 7] | fitness [1, 8] | fitness [1, 9] | fitness [1, 10] | fitness [1, 11] | fitness [2, 8] | fitness [2, 9] | fitness [2, 12] | fitness [2, 10] | fitness [2, 11] | fitness [2, 13] | fitness [2, 14] | Bliss interaction score [3] | Bliss interaction score [4] | Bliss interaction score [5] | Bliss interaction score [6] | fitness [1, 15] | fitness [1, 13] | other results |
| --- | --- | --- | --- | --- | --- | --- | --- | --- | --- | --- | --- | --- | --- | --- | --- | --- | --- | --- | --- |
| CC[C@H](C)[C@H](N)C1=N[C@H](C(=O)N[C@@H](CC(C)C)C(=O)N[C@H](CCC(=O)O)C(=O)N[C@H](C(=O)N[C@H]2CCCCNC(=O)[C@H](CC(N)=O)NC(=O)[C@@H](CC(=O)O)NC(=O)[C@H](Cc3cnc[nH]3)NC(=O)[C@@H](Cc3ccccc3)NC(=O)[C@H]([C@@H](C)CC)NC(=O)[C@@H](CCCN)NC2=O)[C@@H](C)CC)CS1 [Bacitracin] + CCC[C@@H]1C[C@@H](C(=O)N[C@@H]([C@H]2O[C@H](SC)[C@H](O)[C@@H](O)[C@H]2O)[C@H](C)Cl)N(C)C1 [Clindamycin] | 0.0166 | 0.067 | 0.0173 | 0.0139 | 0.0265 | 0.649 | 0.42 | 0.363 | 0.568 | 0.364 | 0.241 | 0.108 | 0.0155 | -0.052 | -0.0851 | -0.071 |  |  | fitness ([1]; first compound 75 µg/mL, partner 0.0312 µg/mL): 0.0388; fitness ([2]; first compound 37.5 µg/mL, partner 0.0039 µg/mL, one replicate): 0.995; fitness ([2]; first compound 37.5 µg/mL, partner 0.0078 µg/mL, one replicate): 0.878; fitness ([2]; first compound 37.5 µg/mL, partner 0.0156 µg/mL, one replicate): 0.831; fitness ([2]; first compound 75 µg/mL, partner 0.0039 µg/mL, one replicate): ≥ 1; fitness ([2]; first compound 75 µg/mL, partner 0.0078 µg/mL, one replicate): 0.891; fitness ([2]; first compound 75 µg/mL, partner 0.0156 µg/mL, one replicate): 0.861; fitness ([2]; first compound 150 µg/mL, partner 0.0039 µg/mL, one replicate): ≥ 1; fitness ([2]; first compound 150 µg/mL, partner 0.0078 µg/mL, one replicate): 0.845; fitness ([2]; first compound 150 µg/mL, partner 0.0156 µg/mL, one replicate): 0.871; fitness ([2]; first compound 150 µg/mL, partner 0.25 µg/mL): 0.0433 |
| CC[C@H](C)[C@H](N)C1=N[C@H](C(=O)N[C@@H](CC(C)C)C(=O)N[C@H](CCC(=O)O)C(=O)N[C@H](C(=O)N[C@H]2CCCCNC(=O)[C@H](CC(N)=O)NC(=O)[C@@H](CC(=O)O)NC(=O)[C@H](Cc3cnc[nH]3)NC(=O)[C@@H](Cc3ccccc3)NC(=O)[C@H]([C@@H](C)CC)NC(=O)[C@@H](CCCN)NC2=O)[C@@H](C)CC)CS1 [Bacitracin] + CC1=C\[C@@H](O)CC(=O)Cc2nc(co2)C(=O)N2CCC=C2C(=O)O[C@H](C(C)C)[C@H](C)/C=C/C(=O)NC\C=C\1 [Virginiamycin M1] | 0.698 | 0.146 | 0.215 | 0.037 | 0.0313 | 0.986 | 0.926 | 0.927 | 0.994 | 0.861 | 0.951 |  | -0.0463 | 0.0498 | 0.0905 | 0.094 | 0.705 | 0.0704 | fitness ([1]; first compound 18.75 µg/mL, partner 0.0625 µg/mL): 0.698; fitness ([1]; first compound 18.75 µg/mL, partner 0.5 µg/mL, one replicate): 0.693; fitness ([1]; first compound 18.75 µg/mL, partner 1 µg/mL, one replicate): 0.72; fitness ([1]; first compound 18.75 µg/mL, partner 2 µg/mL, one replicate): 0.594; fitness [1, 12]: 0.215; fitness ([1]; first compound 37.5 µg/mL, partner 0.5 µg/mL, one replicate): 0.519; fitness [1, 16]: 0.368; fitness ([1]; first compound 37.5 µg/mL, partner 2 µg/mL, one replicate): 0.127; fitness ([1]; first compound 75 µg/mL, partner 0.5 µg/mL, one replicate): 0.0148; fitness [1, 17]: 0.0101; fitness ([1]; first compound 75 µg/mL, partner 2 µg/mL, one replicate): 0.0147 |
| CC[C@H](C)[C@H](N)C1=N[C@H](C(=O)N[C@@H](CC(C)C)C(=O)N[C@H](CCC(=O)O)C(=O)N[C@H](C(=O)N[C@H]2CCCCNC(=O)[C@H](CC(N)=O)NC(=O)[C@@H](CC(=O)O)NC(=O)[C@H](Cc3cnc[nH]3)NC(=O)[C@@H](Cc3ccccc3)NC(=O)[C@H]([C@@H](C)CC)NC(=O)[C@@H](CCCN)NC2=O)[C@@H](C)CC)CS1 [Bacitracin] + CC1=C(C(=O)O)N2C(=O)[C@@H](NC(=O)[C@H](N)c3ccccc3)[C@H]2SC1 [Cephalexin] |  |  |  |  |  |  | 0.922 | 0.824 |  | 0.884 | 0.869 | 0.72 | 0.0487 | 0.129 | 0.0854 | -0.0987 | 0.798 | 0.0499 | fitness ([1]; first compound 18.75 µg/mL, partner 0.5 µg/mL): 0.785; fitness ([1]; first compound 18.75 µg/mL, partner 1 µg/mL): 0.791; fitness [1, 18]: 0.0405; fitness ([1]; first compound 75 µg/mL, partner 1 µg/mL): 0.045; fitness ([2]; first compound 37.5 µg/mL, partner 0.5 µg/mL): 0.838; fitness [2, 16]: 0.874; fitness [2, 18]: 0.904; fitness [2, 17]: 0.886; fitness ([2]; first compound 150 µg/mL, partner 1 µg/mL, one replicate): 0.53 |
